Structures can show the parent of a compound that is named as a salt.
Experiments:
[1] = tested on: Mouse neuro 2a cells; test: Neurite outgrowth of mouse neuroblastoma neuro 2a cells (Table 7); format: cell-based; details: 0.3 mM; mean ± S.D.; hydrochloride
Outline: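 Neuro-2a cells seeded at 1,000 cells/well in DMEM with 10% FCS, cultured one day at 37 °C, 5% CO2, then 24 h with compound (up to 6 concentrations, triplicate). Fixed with glutaraldehyde, methylene blue stained; percentage of cells bearing neurites ≥2× cell long diameter counted microscopically (>200 cells).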

[2] = tested on: Mouse neuroblastoma cells NS-20Y; test: Neurite appearance in mouse neuroblastoma NS-20Y cells (Table 8); format: cell-based; details: hydrochloride;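 note: cells grown in polyornithine-coated dishes, with timing counted from the start of culture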
[3] = tested on: crushed sciatic nerves; test: Recovery of the interdigital distance in rats with crushed sciatic nerves (Table 9); format: in vivo, rat (male Wistar)
Experimental: Rats whose sciatic nerves were crushed were prepared as a model for peripheral nervous disorders and the effects of the compounds of this invention on it were tested. It was made clear that the compounds of the present invention have an effect of promoting recovery of the interdigit distance and the weight of the soleus muscle to normal values.
Curative effect on rats with crushed sciatic nerves: The curing effect of the compound of the invention was tested on rats having crushed sciatic nerves as a model of peripheral nervous disorder using (1) a change in the action of the hind paw with the crushed sciatic nerves and (2) a change in the weight of the muscle as an index of the course of degeneration and regeneration of peripheral nerves.
In the experiment, male Wistar rats (6 weeks old), 10-15 per group, were used. The sciatic nerves were crushed by a method similar to the method of Yamatsu et al. (see Kiyomi Yamatsu, Takenori Kaneko, Akifumi Kitahara and Isao Ohkawa, Journal of Japanese Pharmacological Society, 72, 259-268 (1976) and the method of Hasegawa et al. (see Kazuo Hasegawa, Naoji Mikuni and Yutaka Sakai, Journal of Japanese Pharmacological Society, 7 4 721-734 (1978). Specifically, under anesthesia with pentobarbital (40 mg/kg, i.p.), the left side sciatic nerve was exposed at the femur and a given site was crushed with hemostat (2ram in width) for 30 seconds. After crushing, the operated site was immediately sitched. Vincristine, known to delay the regeneration of peripheral nerves, was administered intraperitoneally at 100 μg/kg per week.
Test compounds selected from the compounds of the invention were administered intraperitoneally or orally once a day from the day of operation to the 30th day. A group to which 0.9% saline was administered was used as control.
According to the method of Hasegawa [Hasegawa, K., Experientia, 34, 750-751 ( 1978)], the distance between the first and fifth digits of the hind paw was measured and the ratio of a crushed-side distance to a normal-side distance was calculated.
*Compound 274 is orally administered to a group of rats with the crushed

[4] = tested on: mouse; test: Acute toxicity in mouse (Table 10); format: in vivo; details: in vivo, ip
Experimental: The acute toxicity of the compounds of the invention was examined by the following method.
Male ddy-strain 5-week old mice, 4-6 per group, were used as experimental animals. Each of the compounds was dissolved or suspended in saline and administered perorally (p.o.) or intraperitoneally (i.p.), and the toxicity of the compound was assessed 24 hours after the administration.

## O=C1CCCN1c1ccnc(N2CCCCC2)n1 [Compound 274, 4-(2-oxopyrrolidino)-2-(4-piperidino) pyrimidine hydrochloride]
[1]
  Ratio of the number of cells having neurites with a length of at least two times as large as the diameter of cells to the total number of cells: 25.8 ± 3.5%
[2]; 24 hour, 0.1 mM
  The number of cells in which neurites appeared/Total number of cells: 4/50
[2]; 24 hour, 0.2 mM
  The number of cells in which neurites appeared/Total number of cells: 6/50
[2]; 48 hour, 0.2 mM
  The number of cells in which neurites appeared/Total number of cells: 4/50
[2]; 48 hour, 0.5 mM
  The number of cells in which neurites appeared/Total number of cells: 6/50
[3]; 7.5 mg/kg orally, 7 days after crush
  Rate of recovery of the interdigital distance: 42.6 ± 6.8%
[3]; 7.5 mg/kg orally, 14 days after crush
  Rate of recovery of the interdigital distance: 37.6%
[3]; 7.5 mg/kg orally, 16 days after crush
  Rate of recovery of the interdigital distance: 38.4%
[3]; 7.5 mg/kg orally, 18 days after crush
  Rate of recovery of the interdigital distance: 40.9 ± 6.2%
[3]; 7.5 mg/kg orally, 20 days after crush
  Rate of recovery of the interdigital distance: 45.6 ± 14.0%
[3]; 7.5 mg/kg orally, 22 days after crush
  Rate of recovery of the interdigital distance: 46.8 ± 13.2%
[3]; 7.5 mg/kg orally, 24 days after crush
  Rate of recovery of the interdigital distance: 48.2%
[3]; 7.5 mg/kg orally, 26 days after crush
  Rate of recovery of the interdigital distance: 54.8%
[3]; 7.5 mg/kg orally, 28 days after crush
  Rate of recovery of the interdigital distance: 66.9 ± 19.6%
[3]; 7.5 mg/kg orally, 30 days after crush
  Rate of recovery of the interdigital distance: 64.0 ± 21.2%
[3]; 15 mg/kg orally, 7 days after crush
  Rate of recovery of the interdigital distance: 39.8 ± 5.2%
[3]; 15 mg/kg orally, 14 days after crush
  Rate of recovery of the interdigital distance: 38.2%
[3]; 15 mg/kg orally, 16 days after crush
  Rate of recovery of the interdigital distance: 39.4%
[3]; 15 mg/kg orally, 18 days after crush
  Rate of recovery of the interdigital distance: 40.5 ± 4.2%
[3]; 15 mg/kg orally, 20 days after crush
  Rate of recovery of the interdigital distance: 46.7 ± 7.3%
[3]; 15 mg/kg orally, 22 days after crush
  Rate of recovery of the interdigital distance: 50.0 ± 10.0%
[3]; 15 mg/kg orally, 24 days after crush
  Rate of recovery of the interdigital distance: 56.8%
[3]; 15 mg/kg orally, 26 days after crush
  Rate of recovery of the interdigital distance: 62.2%
[3]; 15 mg/kg orally, 28 days after crush
  Rate of recovery of the interdigital distance: 65.5 ± 19.8%
[3]; 15 mg/kg orally, 30 days after crush
  Rate of recovery of the interdigital distance: 70.1 ± 21.4%
[3]; 30 mg/kg orally, 7 days after crush
  Rate of recovery of the interdigital distance: 38.8 ± 4.4%
[3]; 30 mg/kg orally, 14 days after crush
  Rate of recovery of the interdigital distance: 39.2%
[3]; 30 mg/kg orally, 16 days after crush
  Rate of recovery of the interdigital distance: 38.3%
[3]; 30 mg/kg orally, 18 days after crush
  Rate of recovery of the interdigital distance: 40.8 ± 4.5%
[3]; 30 mg/kg orally, 20 days after crush
  Rate of recovery of the interdigital distance: 43.8 ± 6.7%
[3]; 30 mg/kg orally, 22 days after crush
  Rate of recovery of the interdigital distance: 47.8 ± 11.5%
[3]; 30 mg/kg orally, 24 days after crush
  Rate of recovery of the interdigital distance: 57.0%
[3]; 30 mg/kg orally, 26 days after crush
  Rate of recovery of the interdigital distance: 60.9%
[3]; 30 mg/kg orally, 30 days after crush
  Rate of recovery of the interdigital distance: 73.6 ± 20.0%
[4]
  Estimated LD50: 250 to 500 mg/kg

— patent US5358945A, “Pyrimidine compound and pharmaceutically acceptable salts thereof” (Mitsui Petrochemical Industries, Ltd., priority 1990, dated 1994)
